Measurements reported in patent US6162799A, “Pesticidal compounds” (BTG International Limited, priority 1995, dated 2000).
Values after ≈ are worked out from the molar mass of the structure shown.

Columns and labels:
Rhizoctonia solani = assay type: cell-based; settings: R. solani
[1] = tested on: Pyricularia oryzae (=Magnaporthe grisea); assay type: cell-based; settings: P. oryzae, 100 mg 1^-1, 7 days
Myzus persicae [2] = experiment: Aphicidal activity, topical application; assay type: in vivo; settings: susceptible strain USIL, 100 ppm, 72 h, read-out: Topical aphid results, % kill M.P. USIL
Description: (§1) Activity against resistant (R) and susceptible (S) strains of aphid (Myzus persicae) and Aphis gossypiae was assessed using the following two methods.
(§2) Batches of 10-15 apterous adults were removed from stock cultures and placed on leaf discs (35 mm in diameter) cut from chinese cabbage and held on an agar bed (25 mm deep) in disposable plastic containers (30 mm high). Using a Burkhard micro-applicator aphids were dosed individually with a 0.25 μm droplet of chemical diluted to the required concentration in acetone. control insects were dosed with acetone only. Mortality and other effects were scored at 24 hour intervals up to and including 72 hour post-treatment, the end-point to which the results relate.
(§3) The test was carried out using a susceptible strain of aphids (US1L) collected in the field in East Anglia, UK and an extremely resistant strain of aphids (794Jz) (R^3 esterase, sensitive ACHE) collected from glasshouses in the UK.
(§4) The values given are % mortality corrected for control data. The control comprised the test solution without active ingredient.

Musca domestica = experiment: Topical test on houseflies (MD); assay type: in vivo; settings: for MD (LD50): houseflies, topical on thorax, kill assessed 24 and 48 h
Description: (§5) Pesticidal activity was assessed against houseflies, mustard beetles, mites and whitefly using the following methods.
Houseflies (MD) (Musca domestica)
Female flies were treated on the thorax with a one microliter drop of test compound dissolved in acetone. Two replicates of 15 flies were used at each dose rate and 6 dose rates were used per compound under test. After treatment, the flies were maintained at a temperature of 20°±1° C. and kill was assessed 24 and 48 hours after treatment. LD50 values were calculated in micrograms of test compound per fly (see Sawicki et al., Bulletin of the World Health Organisation, 35, 893 (1966) and Sawicki et al., Entomologia and Exp. Appli 10, 253, (1967).
(§6) The values given are LD50 (μg/insect) or LC50 (ppm solution of test compound) unless otherwise specified.

Aphis gossypiae = experiment: Aphicidal activity, aphid-dip; assay type: in vivo; settings: strain 81-171B, read-out: Aphid-dip result, % kill A.G. 81-171B
Description: as §1
(§7) Entrapment rings of fluon were painted halfway up the inside of 4 cm lengths of glass tubing (1.5 cm diameter), and squares of insect-proof gauze were attached to one end of each tube by elastic bands. Fifteen apterous adults were then gently transferred into the tubes using a sable-hair brush, and the tube sealed with a second gauze square.
(§8) Tubes containing aphids were dipped into insecticide solutions for 10 seconds, dried on blotting paper, and then inverted and tapped to cause treated aphids to fall to the unimmersed end of each tube. Handling mortality (usually zero or very slight) was scored after 1 hour, when aphids were transferred onto chinese cabbage leaf-discs (35 mm diameter) on an agar bed (25 mm in depth) in disposible plastic containers (30 mm high) and confined by applying a ring of fluon to the exposed lip of the container. Containers were stored upright, without lids, in a constant environment facility maintained at 25° C. under continuous room lighting. Mortality was assessed at 24, 48 and 72 hours. Two replicates of 15 aphids each were used at each dose rate and 5 or 6 dose rates were used per compound under test.
as §4

Aspergillus niger = assay type: cell-based; settings: A. niger
Myzus persicae [3] = experiment: Aphicidal activity, aphid-dip; assay type: in vivo
Description: as §1, §7, §8, §3, §4

Bemisia tabaci = experiment: Film/vial test on whitefly (BT), susceptible strain SUD-S; assay type: in vivo; settings: 48 h, read-out: BT (SUD-S) (LC50)
Description: as §5
Whitefly (BT) (Bemisia tabaci)
Acetone solutions (0.100 ml) of the test compounds were placed in 10 ml glass vials and evaporated with rotation to deposit a film of the compound. Thirty adult whiteflies were placed inside the vial, then after 60 minutes, the treated insects were transferred onto untreated cotton leaf discs which were kept moist on a bed of agar gel. The temperature was maintained at 25° C. and mortality assessed after 48 hours. Three replicates were used at each of 5 to 7 dose levels per compound. LC50 values were calculated by using a computer software package ("Polo-PC" available from LeOra Software, Berkeley, Calif.). (See M. R. Cahill and B. Hackett in Proceedings Brighton Crop Protection Conference, 1992). The test was carried out using a susceptible strain of whitefly (SUD-S) which was collected in Sudan in 1978 from cotton.
as §6

Phaedon cochleariae Fab = experiment: Topical test on mustard beetles (PC); assay type: in vivo; settings: for PC (LD50): mustard beetles, topical, 48 h
Description: as §5
Mustard beetles (PC) (Phaedon cochleariae Fab)
A one microliter drop of an acetone solution of the test compound was applied ventrally to adult mustard beetles using a micro drop applicator. The treated insects were maintained for 48 hours after which time kill was assessed. Two replicates each of 20 to 25 mustard beetles were used at each dose level and 5 dose levels were treated comparably. LD50 values were calculated as for houseflies.
as §6

Tetranychus urticae = experiment: Immersion test on mites (TU), susceptible strain GSS; assay type: in vivo; settings: 72 h, read-out: TU (GSS) (LC50)
Description: as §5
Mites (TU) (Tetranychus urticae)
25 adult female mites were immersed in 35 μl of a solution of the test compound in a 1:4 acetone-water mixture for 30 seconds. The treated insects were maintained at 21°±2° C. and kill was assessed 72 hours after treatment. […] Three replicates of 25 mites each were used at each dose rate and 5 or 6 dose rates were used per compound under test. LC50 values were calculated in ppm of the solution of the test compound per insect. The test was carried out using a susceptible strain of mites (GSS) supplied by Schering, AG, Berlin.
as §6

acarids and fungi = settings: cited from earlier work
Tetranychus = settings: Tabelle A of EP 0300218 A1; cited from earlier work
Myzus = experiment: Aphicidal activity of comparative compounds (topical or dip not stated); assay type: in vivo; settings: prior art t-butyl compound; in the tests set out above; concentration not given
Description: as §1
as §2, with “relate. […]” for “relate.”
as §8, with “Containers were stored upright, without lids, in a constant environment facility maintained at 25° C. under continuous room lighting.” left out, “Two replicates of 15 aphids each were used at each dose rate and 5 or 6 dose rates were used per compound under test.” left out

[4] = 100 mg 1^-1, 4 days at 20-25° C.
[5] = resistant strain 794JZ, read-out: Aphid-dip result, % kill M.P. 794JZ
[6] = susceptible strain USIL, read-out: Aphid-dip result, % kill M.P. USIL
[7] = prior art t-butyl compound, tested by the present inventors

SMILES | mortality at 100 ppm (Myzus persicae [2]) | MD (LD50) (Musca domestica) | mortality at 100 ppm (Aphis gossypiae) | mortality at 100 ppm (Myzus persicae [3]; [5]) | mortality at 100 ppm (Myzus persicae [3]; [6]) | LC50 (Bemisia tabaci) | PC (LD50) (Phaedon cochleariae Fab) | LC50 (Tetranychus urticae) | further results
COC(=O)Nc1nc2ccccc2[nH]1 [Carbendazim, carbendazim] |  |  |  |  |  |  |  |  | Activity at 1 mg 1^-1 (% inhibition of growth in colony diameter) (Rhizoctonia solani; 1 mg 1^-1): 3.3%; Activity at 5 mg 1^-1 (% inhibition of growth in colony diameter) (Rhizoctonia solani; 5 mg 1^-1): 82.4%
C[Si](C)(C)CCC1=C(O)C(=O)c2ccccc2C1=O [Example 2, 2-hydroxy-3-(2'-trimethylsilylethyl)-1,4-naphthoquinone] | 45% | 0.69 μg/insect | 63% | 54% | 77% | 2.6 µg/mL (≈ 9.48 µM) | 0.45 μg/insect | 38 µg/mL (≈ 138 µM) | Activity at 100 mg 1^-1 (% inhibition of growth in colony diameter) [1]: 67%; Activity at 100 mg 1^-1 (% inhibition of growth in colony diameter) (Aspergillus niger; [4]): 18%; Activity at 100 mg 1^-1 (% inhibition of growth in colony diameter) (Rhizoctonia solani; [4]): 35%
C[Si](C)(C)CCCCCCCCCC1=C(O)C(=O)c2ccccc2C1=O [Example 12, 2-hydroxy-3-(9-trimethylsilylnonyl)-1,4-naphthoquinone] | 89% | 2.8 μg/insect | 93% | 61% | 100% | 8.6 µg/mL (≈ 23.1 µM) | 0.13 μg/insect | 0.9 µg/mL (≈ 2.42 µM) | 
CCCN(CCOc1c(Cl)cc(Cl)cc1Cl)C(=O)n1ccnc1 [Prochloraz, prochloraz, reference compound] |  |  |  |  |  |  |  |  | Activity at 1 mg 1^-1 (% inhibition of growth in colony diameter) (Aspergillus niger; 1 mg 1^-1): 97.8%
C[Si](C)(C)C1CCC(C2=C(O)C(=O)c3ccccc3C2=O)CC1 (stereo not shown) [compound of Example 5 (DE 3801743 A1)] |  |  |  |  |  |  |  |  | pesticidal activity relative to other disclosed compounds (acarids and fungi; DE 3801743 A1): not the most pesticidally active compound; acaricidal and fungicidal activity (acarids and fungi; data in DE 3801743 A1): some acaricidal and fungicidal activity; activity against Tetranychus relative to tertiary butyl compound (Tetranychus): less than the corresponding tertiary butyl compound
CC(C)(C)C1CCC(C2=C(O)C(=O)c3ccccc3C2=O)CC1 (stereo not shown) [t-butyl compoud, reference compound] |  |  |  |  |  |  |  |  | LD50 against Musca (Musca domestica; [7]): 16 μg/insect; kill against Myzus (Myzus): 19%; LD50 against Phaedon (Phaedon cochleariae Fab; [7]): 0.53 μg/insect
